From patent publication US9023853B2, “Janus kinase 2 (JAK2) inhibitor for the treatment of lupus” (Cephalon, Inc., priority 2010, dated 2015)
Values joined by “and” are separate entries in the source; they are usually repeats but may differ in a detail not shown here. Equal entries are not always repeated. “Also recorded” adds a separate entry of the source.

What was measured:
Type in all cases: in vivo, mouse
NZM mice [1] = assay: Survival in NZM lupus model; settings: for Age (d), MEAN: NZM group mean; for Age: NZM individual mouse (survival; EOS = 310 days of age); for survival at EOS: NZM mice
Experimental: Six week old lupus-prone, female, MRL/lpr (Jackson Labs, #000485) and non-lupus prone control MRL/MpJ (Jackson Labs, #000486) mice were obtained from Jackson Laboratories (Bar Harbor, Me.) at 6-weeks of age. Spontaneous SLE-prone NZBWF1/J (NZM) (catalog no. 100008) female mice and non-lupus prone (within time from of experiment) NZW/LacJ (catalog no. 001058) female mice were obtained from Jackson Laboratories (Bar Harbor, Me.) at 15-weeks of age. All mice were maintained on a […] light/dark cycle, with food and water available ad libitum. All experimental animal procedures were approved by and in accordance to the regulations of the Institutional Animal Care and Use Committee (IACUC) of Cephalon, Inc; approved IACUC protocol #03-040 and #03-03-041.
The NZM strain acts as a mouse model of genetically-driven, progressive, systemic lupus erythematosus (SLE). The evolution of the disease in NZM mice is characterized by an abnormal polyclonal B cell activation with a high production of various autoantibodies, including those directed against DNA and other nuclear antigens, and against cytoskeleton proteins. Elevated circulating immune complexes can lead to fatal glomerulonephritis in older mice.
(§1) Age mated, female, NZM or NZW/LacJ, mice were matured for the study of lupus nephritis for a total of 7 months or 210 days at which time urine was collected for proteinuria detection. Mice with 0.5-1.0 mg/ml of urine protein as determined by an optical density-based total protein precipitation assay and cross-checked for 30-300 mg/dl of protein as determined by a stick assay were considered proteinuria positive and selected for study entry. Groups were normalized to contain a Gaussian distribution of proteinuria positive animals (i.e., ⅓ low proteinuria, ⅓ medium, ⅓ high) then randomized between groups before ear marking and taking baseline measures including urine and serum collections. A total of five mice from the total population were randomly selected for baseline kidney histology evaluation. Treatments and tests for each group are as described in FIG. 12. Briefly, with a minimum of 10 mice per group, COMPOUND A was administered at 100 mg/kg or 55 mg/kg, both twice a day and orally. […] Vehicle included 3% DMSO, 10% Solutol and 87% PBS. […] End-stage lupus nephritis was evaluated by histopathology and scored by a board certified pathologist for the assessment of total renal damage in diseased animals using the scoring method described by Smith et al (Smith, Dong et al. 2007). […] Day-98 or “end of treatment/study” represents 310 days of age for the NZM animals.

NZM mice [2] = assay: Urinalysis total urine protein (proteinuria) in NZM mice; settings: for I: Proteinuria, MEAN: NZM group mean; for I: Proteinuria: NZM individual mouse; for total urine protein decrease compared to vehicle: over course of disease
Experimental: Urine samples were acid precipitated for total protein recovery and analysis. Samples for which enough urine remained were used for Uristix® leukouria analysis (MRL/lpr study only). Briefly, a standard protein solution was prepared from normal mouse sera and was used as a standard for mouse urinary protein assay by turbidity. Standard preparation was as follows: 0, 5, 10, 15, 20, 30, 40, and 50 μL of a 4 mg/mL mouse sera standard protein solution as provided in the kit were added in duplicate into two columns. PBS was added to individual wells to adjust the final volume to 50 μL. For urine sample preparation, urine samples were centrifuged at 9880×g for 3 minutes using a tabletop micro-centrifuge. Urine supernatant (1-50 μL) was added in duplicate. PBS was added to adjust the volume to 50 μL total. For the turbidity assay: 25 μL of 0.1 N HCl was added into blank columns and 250 μL of 3% sulfosalicyclic acid into the test columns. The microplate was incubated for 10 minutes at RT and plates were read using an ELISA reader with single beam at 450 nm. For the Uristix® strip assay, strips were laid out and labeled. Twenty microliters of urine were placed onto each test strip square and incubated for at least 30 seconds before the result was recorded. For all total urine analysis plate-based assays, values below the limit of detection set by the lowest point along the standard or set by the manufacturer were considered out of range and were not estimated, but assumed the lowest point along the standard curve for that particular assay.
as §1

NZM mice [3] = assay: Renal histopathology kidney IC-GN scoring in NZM mice; settings: for D: Glomerular Sclerosis / E: Interstitial Infiltration / G: Interstitial Fibrosis / B: Glomerular Cellularity / C: Glomerular Necrosis / F: Tubular Atrophy / H: Vasculitis: NZM individual mouse; for Glomerular Cellularity / Glomerular Necrosis / Glomerulosclerosis / Interstitial Fibrosis / Interstitial Infiltration / Tubular Atrophy / Vasculitis: NZM kidney score (grade 0-5), mean; for glomerular cellularity decrease compared to vehicle: p<0.001
Experimental: For histological analyses, the left kidney and lung (NZM model only) from each animal was removed and fixed in 10% buffered neutral 10% formalin (EMD) for 48 hours on an orbital rocker at 25° C., then washed overnight with running dH2O and stored in 70% ethanol at 4° C. until ready to be processed. Kidney stains used for histological analyses included hematoxylin and eosin (H&E), Periodic Acid Schiff (PAS) and Trichrome stains (Wistar Institute, Philadelphia, Pa.). All 3 stained sections were used by the pathologist for scoring purposes. All histological scoring was performed blinded and by an independent board certified veterinary medical pathologist (Julie Engiles, VMD, DACVP; University of Pennsylvania). Multiple stains were used to determine score values. Images in FIGS. 8, 19 and 20 show worst affected area of section selected blindly by the pathologist.
Kidney IC-GN Scoring Method (Smith, Dong et al. 2007):
1. […]
2. […]
3. […]
4. […]
5. […]
6. […]
7. […]
Also considered effacement of the glomerular tuft by PAS positive, Trichrome negative material necrosis. • Glomerular sclerosis was defined by increased fibroplasia or fibrosis within the glomerular tuft or capsule. […] Pharmacodynamic (PD) Analysis
as §1

[4] = NZM mice, sentence names 55 mg/kg and 100 mg/kg doses, p<0.05

**Q.** Which results are given for `CN1CCN(c2cccc(Nc3nc4c(-c5ccc(S(C)(=O)=O)cc5)cccn4n3)c2)CC1` [COMPOUND A, [8-(4-methanesulfonyl-phenyl)-[1,2,4]triazolo[1,5-a]pyridin-2-yl]-[3-(4-methyl-piperazin-1-yl)-phenyl]-amine]?
**A.** Age (d), MEAN (NZM mice [1]; CMPD A 55 mpk bid): 300.2 days; Age (d), MEAN (NZM mice [1]; CMPD A 100 mpk bid): 291.8 days; Age (NZM mice [1]; CMPD A 55 mpk bid, 55 mg/kg): 310 d (9×) and 212 d; Age (NZM mice [1]; CMPD A 100 mpk bid, 100 mg/kg): 310 d (7×) and 268 d (2×) and 212 d; survival at EOS (NZM mice [1]; COMPOUND A 55 mg/kg orally twice a day): 90%; survival at EOS (NZM mice [1]; COMPOUND A 100 mg/kg orally twice a day): 70%; I: Proteinuria, MEAN (NZM mice [2]; CMPD A 55 mpk bid): 0.56 mg/mL; I: Proteinuria, MEAN (NZM mice [2]; CMPD A 100 mpk bid): 1.32 mg/mL; I: Proteinuria (NZM mice [2]; CMPD A 55 mpk bid, 55 mg/kg): 0.41 mg/mL (2×) and 0.50 mg/mL and 0.74 mg/mL and 0.48 mg/mL (2×) and 0.52 mg/mL and 1.11 mg/mL and 0.37 mg/mL and 0.61 mg/mL; I: Proteinuria (NZM mice [2]; CMPD A 100 mpk bid, “0.00” = BQL, 100 mg/kg): 0.48 mg/mL and 0.55 mg/mL and 0.70 mg/mL and 0.53 mg/mL and 0.44 mg/mL and 0.11 mg/mL and 0.00 mg/mL (3×) and 10.39 mg/mL; total urine protein decrease compared to vehicle (NZM mice [2]; NZM mice, COMPOUND A 55 mg/kg): 76.25; total urine protein decrease compared to vehicle (NZM mice [2]; NZM mice, COMPOUND A 100 mg/kg): 81.8%; urine protein levels relative to age-matched, non-lupus control mice (NZM mice [2]; NZM mice, COMPOUND A treatment, FIG. 17): below the protein levels of age-matched, non-lupus control mice; D: Glomerular Sclerosis (NZM mice [3]; CMPD A 55 mpk bid): − (‘−’ no disease (1)); E: Interstitial Infiltration (NZM mice [3]; CMPD A 55 mpk bid): − (‘−’ no disease (1)); G: Interstitial Fibrosis (NZM mice [3]; CMPD A 55 mpk bid): − (‘−’ no disease (1)); B: Glomerular Cellularity (NZM mice [3]; CMPD A 55 mpk bid, 55 mg/kg): + (‘+’ mild (2)); also recorded: − (‘−’ no disease (1)); C: Glomerular Necrosis (NZM mice [3]; CMPD A 55 mpk bid, 55 mg/kg): − (‘−’ no disease (1)); also recorded: + (‘+’ mild (2)); F: Tubular Atrophy (NZM mice [3]; CMPD A 55 mpk bid, 55 mg/kg): + (‘+’ mild (2)); also recorded: − (‘−’ no disease (1)); H: Vasculitis (NZM mice [3]; CMPD A 55 mpk bid, 55 mg/kg): − (‘−’ no disease (1)); also recorded: + (‘+’ mild (2)); B: Glomerular Cellularity (NZM mice [3]; CMPD A 100 mpk bid, 100 mg/kg): − (‘−’ no disease (1)); also recorded: + (‘+’ mild (2)); C: Glomerular Necrosis (NZM mice [3]; CMPD A 100 mpk bid, 100 mg/kg): − (‘−’ no disease (1)); also recorded: + (‘+’ mild (2)); also recorded: ++ (‘++’ moderate (3)); D: Glomerular Sclerosis (NZM mice [3]; CMPD A 100 mpk bid, 100 mg/kg): − (‘−’ no disease (1)); also recorded: ++ (‘++’ moderate (3)); E: Interstitial Infiltration (NZM mice [3]; CMPD A 100 mpk bid, 100 mg/kg): − (‘−’ no disease (1)); also recorded: + (‘+’ mild (2)); F: Tubular Atrophy (NZM mice [3]; CMPD A 100 mpk bid, 100 mg/kg): − (‘−’ no disease (1)); also recorded: + (‘+’ mild (2)); G: Interstitial Fibrosis (NZM mice [3]; CMPD A 100 mpk bid, 100 mg/kg): − (‘−’ no disease (1)); also recorded: + (‘+’ mild (2)); H: Vasculitis (NZM mice [3]; CMPD A 100 mpk bid, 100 mg/kg): − (‘−’ no disease (1)); also recorded: + (‘+’ mild (2)); Glomerular Cellularity (NZM mice [3]; COMPOUND A 55 mg/kg): 1.33; Glomerular Necrosis (NZM mice [3]; COMPOUND A 55 mg/kg): 1.22; Glomerulosclerosis (NZM mice [3]; COMPOUND A 55 mg/kg): 1.00; Interstitial Fibrosis (NZM mice [3]; COMPOUND A 55 mg/kg): 1.0; Interstitial Infiltration (NZM mice [3]; COMPOUND A 55 mg/kg): 1.11; Tubular Atrophy (NZM mice [3]; COMPOUND A 55 mg/kg): 1.22; Vasculitis (NZM mice [3]; COMPOUND A 55 mg/kg): 1.11; Glomerular Cellularity (NZM mice [3]; COMPOUND A 100 mg/kg): 1.44; Glomerular Necrosis (NZM mice [3]; COMPOUND A 100 mg/kg): 1.44; Glomerulosclerosis (NZM mice [3]; COMPOUND A 100 mg/kg): 1.22; Interstitial Fibrosis (NZM mice [3]; COMPOUND A 100 mg/kg): 1.22; Interstitial Infiltration (NZM mice [3]; COMPOUND A 100 mg/kg): 1.22; Tubular Atrophy (NZM mice [3]; COMPOUND A 100 mg/kg): 1.33; Vasculitis (NZM mice [3]; COMPOUND A 100 mg/kg): 1.44; enlarged glomeruli and leukocytic infiltrates in renal sections (NZM mice [3]; NZM mice treated with COMPOUND A, FIG. 19): absent; glomerular cellularity decrease compared to vehicle (NZM mice [3]; NZM mice, COMPOUND A 55 mg/kg): 59.3%; glomerular cellularity decrease compared to vehicle (NZM mice [3]; NZM mice, COMPOUND A 100 mg/kg): 56.2%; renal pathologies (NZM mice [3]; NZM mice, comparable to non-diseased NZW/LacJ age-matched control, FIG. 19): decreased renal pathologies; interstitial fibrosis decrease compared to vehicle (NZM mice [3]; [4]): 58.3%; vasculitis decrease compared to vehicle (NZM mice [3]; [4]): 8.3%
